Target: T1, Phospholipase A2 derived from bovine pancreas (PLA2) (Bos taurus, UniProt P00593)
T1 construct: gene PLA2G1B; commercial native enzyme from bovine pancreas (Sigma)
Test: fluorescence enhancement (BODIPY FL release, […] nm)
Type: biochemical
Settings: 10 mM Tris-HCl pH 8.0, 100 mM NaCl, 10 mM CaCl2, 45 nM substrate, 6 min; labelled compound; enzyme used as control

T1 sequence (P00593 23-145): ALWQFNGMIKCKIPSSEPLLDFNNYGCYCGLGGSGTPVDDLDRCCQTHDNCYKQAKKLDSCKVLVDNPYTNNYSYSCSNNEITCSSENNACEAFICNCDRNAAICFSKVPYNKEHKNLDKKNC

For CC1=CC(C)=[N+]2C1=Cc1ccc(CCCCCCCCCCC(=O)OC[C@H](COP(=O)([O-])OCC[N+](C)(C)C)OC(=O)CCCCCCCCCCc3ccc4n3[B-](F)(F)[N+]3=C(C)C=C(C)C3=C4)n1[B-]2(F)F [bis-BODIPY FL C11-PC], the “fluorescence enhancement (BODIPY FL release, 485/530 nm)” value was “S. marcescens PhlA and bovine pancreatic PLA2 released fluorescent fatty acids from bis-BODIPY FLC11-PC”.
